Measurements: ChEMBL document CHEMBL5321225, “DeepCancerMap: A versatile deep learning platform for target- and cell-based anticancer drug discovery” (Eur J Med Chem, 2023)

Columns and labels:
CNE-2 = experiment: Antiproliferative activity against human CNE-2 cells assessed as reduction in cell viability; format: functional, cell-based
A549 = experiment: Antiproliferative activity against human A549 cells assessed as reduction in cell viability; format: functional, cell-based

IC50 (A549)	Compound	IC50 (CNE-2)
> 50000 nM	CCCCCCC(=O)Nc1ncc(Cc2ccc(OC)cc2)s1	2030 nM
> 50000 nM	Cc1ccc(C(=O)Nc2ncc(Cc3cccc(Cl)c3)s2)cc1	2990 nM
